# Test results published in US20050282242A1, “Screening assays for antimicrobial agents” (priority 2004, published 2005).
# Like-named read-outs stand apart in the source and are kept apart here.
# Key:
# [1] = tested on: S. aureus RpoB mutant D471Y; assay: MIC, S. aureus RpoB D471Y mutant; format: cell-based; conditions: Staphylococcus aureus; RpoB mutation D471Y; strain backgrounds 1, 2, 4
# Source text: (§1) S. aureus is one of the most frequently encountered Gram-positive pathogens. Drug resistance-conferring mutations typically occur within the β subunit of RNA polymerase (RpoB mutations), in the rifampin-binding site. Mutants of S. aureus were isolated by inoculating a culture of S. aureus ATCC strain 29213 (standard susceptibility testing strain) into medium containing rifampin or rifalazil; by inoculating S. aureus ATCC strain 29213 into medium containing chemical derivatives of rifamycin (NCEs); by inoculating S. aureus Smith, a variant optimally adapted to colonizing and causing disease in the mouse septicemia model, into medium containing rifampin; and by using the Ian Chopra collection, the parent strain of which is S. aureus 8325-4 and described previously by Oliva et al. (Antimicrob. Agents Chemother. 45:532-9, 2001). […]
# (§2) Having identified these mutants, the minimum inhibitory concentrations (MIC) of a number of rifamycin derivatives were determined in microtiter trays by inoculating 1-8×10^4 microorganisms in 100 μl of Mueller-Hinton Broth (cation adjusted) containing the indicated compound (Table 3) (National Committee for Clinical Laboratory Standards, Methods for Dilution Antimicrobial Susceptibility Tests for Bacteria That Grow Aerobically-Fourth Edition: Approved Standard M7-A4. NCCLS, Villanova, Pa., 1997). […]
# [2] = tested on: S. aureus Smith mutant containing the S486L mutation in RpoB; assay: Mouse septicemia model, S. aureus Smith RpoB S486L; format: in vivo; conditions: 1.4 × 10^7 CFU/mouse, three days
# Method: (§3) Antimicrobial compounds may also be screened in vivo using a mouse septicemia model. In one particular example, mice were inoculated with an S. aureus Smith strain (Weiss) encoding a mutated microbial polypeptide (e.g., a mutated RpoB). Compounds were administered either IV or orally 30 minutes following inoculation, and observations was continued for three days. Compounds that promoted the survival of inoculated mice were identified as being compounds that are effective against antibiotic-resistant forms of S. aureus.
# (§4) This was accounted for by the increased MIC against these mutant strains compared with the wild-type strain (MICs of 2 μg/ml and 0.004-0.008 μg/ml, respectively).
# [3] = tested on: S. aureus RpoB mutant Q137L; assay: MIC, S. aureus RpoB Q137L mutant; format: cell-based; conditions: Staphylococcus aureus; RpoB mutation Q137L; strain backgrounds 1, 4
# Source text: as §1, §2
# [4] = tested on: S. aureus RpoB mutant D471G; assay: MIC, S. aureus RpoB D471G mutant; format: cell-based; conditions: Staphylococcus aureus; RpoB mutation D471G; strain backgrounds 1, 2
# Source text: as §1, §2
# [5] = tested on: S. aureus RpoB mutant R484S; assay: MIC, S. aureus RpoB R484S mutant; format: cell-based; conditions: Staphylococcus aureus; RpoB mutation R484S; strain background 1
# Source text: as §1, §2
# [6] = tested on: S. aureus RpoB mutant D471E; assay: MIC, S. aureus RpoB D471E mutant; format: cell-based; conditions: Staphylococcus aureus; RpoB mutation D471E; strain background 4
# Source text: as §1, §2
# [7] = tested on: S. aureus RpoB mutant A477V; assay: MIC, S. aureus RpoB A477V mutant; format: cell-based; conditions: Staphylococcus aureus; RpoB mutation A477V; strain backgrounds 1, 2
# Source text: as §1, §2
# [8] = tested on: S. aureus RpoB mutant L466S; assay: MIC, S. aureus RpoB L466S mutant; format: cell-based; conditions: Staphylococcus aureus; RpoB mutation L466S; strain backgrounds 1, 2, 4
# Source text: as §1, §2
# [9] = tested on: S. aureus RpoB mutant I527M; assay: MIC, S. aureus RpoB I527M mutant; format: cell-based; conditions: Staphylococcus aureus; RpoB mutation I527M; strain background 1
# Source text: as §1, §2
# [10] = tested on: S. aureus RpoB mutant S464P; assay: MIC, S. aureus RpoB S464P mutant; format: cell-based; conditions: Staphylococcus aureus; RpoB mutation S464P; strain backgrounds 1, 2, 4
# Source text: as §1, §2
# [11] = tested on: S. aureus RpoB mutant I527P; assay: MIC, S. aureus RpoB I527P mutant; format: cell-based; conditions: Staphylococcus aureus; RpoB mutation I527P; strain background 1
# Source text: as §1, §2
# [12] = tested on: S. aureus RpoB mutant A477D; assay: MIC, S. aureus RpoB A477D mutant; format: cell-based; conditions: Staphylococcus aureus; RpoB mutation A477D; strain backgrounds 1, 4
# Source text: as §1, §2
# [13] = tested on: Wild-type parent strains (S. aureus 29213, Smith, W59536, 8325-4); assay: MIC, wild-type parent S. aureus strains; format: cell-based
# Source text: S. aureus is one of the most frequently encountered Gram-positive pathogens. Drug resistance-conferring mutations typically occur within the β subunit of RNA polymerase (RpoB mutations), in the rifampin-binding site. Mutants of S. aureus were isolated by inoculating a culture of S. aureus ATCC strain 29213 (standard susceptibility testing strain) into medium containing rifampin or rifalazil; by inoculating S. aureus ATCC strain 29213 into medium containing chemical derivatives of rifamycin (NCEs); by inoculating S. aureus Smith, a variant optimally adapted to colonizing and causing disease in the mouse septicemia model, into medium containing rifampin; and by using the Ian Chopra collection, the parent strain of which is S. aureus 8325-4 and described previously by Oliva et al. (Antimicrob. Agents Chemother. 45:532-9, 2001). Mutants resistant to rifampin, rifalazil, or NCEs were selected either on drug-containing plates or in liquid culture.
# Having identified these mutants, the minimum inhibitory concentrations (MIC) of a number of rifamycin derivatives were determined in microtiter trays by inoculating 1-8×10^4 microorganisms in 100 μl of Mueller-Hinton Broth (cation adjusted) containing the indicated compound (Table 3) (National Committee for Clinical Laboratory Standards, Methods for Dilution Antimicrobial Susceptibility Tests for Bacteria That Grow Aerobically-Fourth Edition: Approved Standard M7-A4. NCCLS, Villanova, Pa., 1997). These cultures were incubated for 16-20 hours at 35° C. Based on our results, the most important mutants (conferring the strongest resistance) were identified for more extensive testing of NCEs. These mutants were H481Y, Q468K, S486L, D471Y, S464P, A477D, and H481D. […] An exception to the uniformity of the measure of resistance is provided by the mutants D471Y and S464P, which together have lower MICs for some of the compounds compared to the rest. […]
# [14] = tested on: S. aureus Smith mutant containing the L466S mutation in RpoB; assay: Mouse septicemia model, S. aureus Smith RpoB L466S; format: in vivo; conditions: 1.1 × 10^7 CFU/mouse, three days
# Method: as §3, §4
# [15] = tested on: S. aureus 29213; assay: Mutant score test (resistance development on agar); format: cell-based; conditions: 10^9 cells of S. aureus 29213 on agar plate with 1 μg/ml compound
# Method: A further confirmation of the validity of MIC testing of the mutant panel was provided by our mutant score test. Using this strategy, compounds were individually tested for resistance development by inoculating 10^9 cells of S. aureus 29213, a standard susceptibility strain, onto a large agar plate (150 mm) containing Mueller Hinton Agar as well as 1 μg/ml of the test compound. The presence of rifalazil or rifampin in these plates generally allowed for the growth of ˜50 colonies, all colonies representing a mutant sub-population or populations in the culture. […] The MICs of NCEs on agar plates were lower than MICs determined by growth in liquid broth. […] This correlation provided additional confidence in the value and ranking of compounds by MIC testing of the mutant panel, as compounds having a score of 2 have tracked with strong activity in MIC testing against resistant strains, as indicated in Table 3.
# [16] = tested on: S. aureus Smith containing the RpoB H481Y alteration; assay: Mouse septicemia model, S. aureus Smith RpoB H481Y; format: in vivo; conditions: for Survival (n = 5): mouse, 1.1 × 10^7 CFU/mouse, three days
# Method: as §3, §4
# [17] = tested on: S. aureus RpoB mutant H481N; assay: MIC, S. aureus RpoB H481N mutant; format: cell-based; conditions: Staphylococcus aureus; RpoB mutation H481N; strain backgrounds 1, 4
# Source text: as §1, §2
# [18] = tested on: S. aureus RpoB mutant Q468K; assay: MIC, S. aureus RpoB Q468K mutant; format: cell-based; conditions: Staphylococcus aureus; RpoB mutation Q468K; strain background 1
# Source text: as §1, §2
# [19] = tested on: S. aureus RpoB mutant H481D; assay: MIC, S. aureus RpoB H481D mutant; format: cell-based; conditions: Staphylococcus aureus; RpoB mutation H481D; strain backgrounds 1, 4
# Source text: as §1, §2
# [20] = tested on: S. aureus RpoB mutant Q468R; assay: MIC, S. aureus RpoB Q468R mutant; format: cell-based; conditions: Staphylococcus aureus; RpoB mutation Q468R; strain background 1
# Source text: as §1, §2
# [21] = tested on: S. aureus RpoB mutant R484H; assay: MIC, S. aureus RpoB R484H mutant; format: cell-based; conditions: Staphylococcus aureus; RpoB mutation R484H; strain backgrounds 1, 3
# Source text: as §1, §2
# [22] = tested on: S. aureus RpoB mutant S486L; assay: MIC, S. aureus RpoB S486L mutant; format: cell-based; conditions: Staphylococcus aureus; RpoB mutation S486L; strain backgrounds 1, 2, 4
# Source text: as §1, §2
# [23] = tested on: S. aureus RpoB mutant H481R; assay: MIC, S. aureus RpoB H481R mutant; format: cell-based; conditions: Staphylococcus aureus; RpoB mutation H481R; strain background 3
# Source text: as §1, §2
# [24] = tested on: S. aureus RpoB mutant D471V; assay: MIC, S. aureus RpoB D471V mutant; format: cell-based; conditions: Staphylococcus aureus; RpoB mutation D471V; strain background 3
# Source text: as §1, §2
# [25] = tested on: S. aureus RpoB mutant R484C; assay: MIC, S. aureus RpoB R484C mutant; format: cell-based; conditions: Staphylococcus aureus; RpoB mutation R484C; strain background 3
# Source text: as §1, §2
# [26] = tested on: S. aureus RpoB mutant H481Y; assay: MIC, S. aureus RpoB H481Y mutant; format: cell-based; conditions: Staphylococcus aureus; RpoB mutation H481Y; strain backgrounds 1, 2, 3
# Source text: as §1, §2
smiles,measurement,setting,value
"CO[C@H]1/C=C/O[C@@]2(C)Oc3c(C)c(O)c4c(O)c(c(/C=N/N5CCN(C)CC5)c(O)c4c3C2=O)NC(=O)/C(C)=C\C=C\[C@H](C)[C@H](O)[C@@H](C)[C@@H](O)[C@@H](C)[C@H](OC(C)=O)[C@@H]1C [Rifampicin, rifampin]",MIC,[1],1 µg/mL
same,Survival (n = 5),[2]; IV 6.0 mg/kg,0
same,Survival (n = 5),[2]; IV 20.0 mg/kg,1
same,MIC,[3],0.25 µg/mL
same,MIC,[4],> 8 µg/mL
same,MIC,[5],8 µg/mL
same,MIC,[6],0.25 µg/mL
same,MIC,[7],1 µg/mL
same,MIC,[8],0.25 µg/mL
same,MIC,[9],0.25 µg/mL
same,MIC,[10],> 8 µg/mL
same,MIC,[11],4 µg/mL
same,MIC,[12],> 8 µg/mL
same,MIC,"[13]; Staphylococcus aureus, Mutation None: wild-type parent strains, read-out: MIC",0.015 µg/mL
same,Survival (n = 5),[14]; IV 6.0 mg/kg,0
same,Survival (n = 5),[14]; IV 20.0 mg/kg,0
same,growth of mutant colonies on plate,[15],~50 colonies
same,efficacy against mutant strains in vivo,"[16]; mouse septicemia model, mutant strains in general",failed to be effective
same,Survival (n = 5),[16]; IV 6.0 mg/kg,0
same,Survival (n = 5),[16]; IV 20.0 mg/kg,0
same,Survival (n = 5),[16]; oral 200.0 mg/kg,0
same,MIC,[17],2 µg/mL
same,MIC,[18],> 8 µg/mL
same,MIC,[19],> 8 µg/mL
same,MIC,[20],> 8 µg/mL
same,MIC,[21],> 8 µg/mL
same,MIC,[22],> 8 µg/mL
same,MIC,[23],> 8 µg/mL
same,MIC,[24],> 8 µg/mL
same,MIC,[25],2 µg/mL
same,MIC,[26],> 8 µg/mL
O=C(O)c1cn(C2CC2)c2cc(N3CCNCC3)c(F)cc2c1=O [Ciprofloxacin],Survival (n = 5),[2]; IV 0.6 mg/kg,1
same,Survival (n = 5),[2]; IV 2.0 mg/kg,3
same,Survival (n = 5),[2]; IV 6.0 mg/kg,5
same,Survival (n = 5),[14]; IV 0.6 mg/kg,1
same,Survival (n = 5),[14]; IV 2.0 mg/kg,4
same,Survival (n = 5),[14]; IV 6.0 mg/kg,5
same,Survival (n = 5),[16]; IV 0.6 mg/kg,2
same,Survival (n = 5),[16]; IV 2.0 mg/kg,5
same,Survival (n = 5),[16]; IV 6.0 mg/kg,4
"CO[C@H]1/C=C/O[C@@]2(C)Oc3c(C)c(O)c4c(=O)c(c5oc6cc(N7CCN(CC(C)C)CC7)cc(O)c6nc-5c4c3C2=O)NC(=O)/C(C)=C\C=C\[C@H](C)[C@H](O)[C@@H](C)[C@@H](O)[C@@H](C)[C@H](OC(C)=O)[C@@H]1C [Rfz, rifalazil]",MIC,[1],0.25 µg/mL
same,MIC,[3],< 0.031 µg/mL
same,MIC,[4],> 8 µg/mL
same,MIC,[5],0.5 µg/mL
same,MIC,[6],< 0.031 µg/mL
same,MIC,[7],0.063 µg/mL
same,MIC,[8],0.016 µg/mL
same,MIC,[9],0.063 µg/mL
same,MIC,[10],1 µg/mL
same,MIC,[11],1 µg/mL
same,MIC,[12],2 to 4 µg/mL
same,MIC,[13]; Mutation None: wild-type parent strains,0.015 µg/mL
same,MIC,"[13]; Staphylococcus aureus, strain not stated, matches wild-type value of Table 2, read-out: MIC",0.015 µg/mL
same,growth of mutant colonies on plate,[15],~50 colonies
same,MIC,[17],0.125 µg/mL
same,MIC,[18],> 8 µg/mL
same,MIC,[19],> 8 µg/mL
same,MIC,[20],> 8 µg/mL
same,MIC,[21],8 µg/mL
same,MIC,[22],> 8 µg/mL
same,MIC,[23],> 8 µg/mL
same,MIC,[24],2 µg/mL
same,MIC,[25],0.5 µg/mL
same,MIC,[26],> 8 µg/mL
